Assays:
Assay in all cases: Histone peptide microarray
Format in all cases: binding, human
[1] = tested on: RAG2
Outline: (§1)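 Mean ± SD of 4 replicate array intensities; GST-PHD finger at 0.5 μM against 293 PTM-bearing histone peptides.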

[2] = tested on: MORC3 (CW)
Outline: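 Steps: express and purify GST-tagged PHD reader; incubate 0.5 μM protein on a peptide microarray (293 histone peptides, single or combined PTMs) following an optimized protocol; average signal across 4 replicates.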

[3] = tested on: PHF21A
Outline: as §1

[4] = tested on: ING4
Outline: as §1

[5] = tested on: TRIM66 (PB)
Outline: as §1

[6] = tested on: PHF2
Outline: as §1

[7] = tested on: KDM5A (1)
Outline: as §1

[8] = tested on: DPF2 (PPC2W2)
Outline: as §1

[9] = tested on: KDM7A
Outline: as §1

[10] = tested on: ING5
Outline: as §1

[11] = tested on: ING2
Outline: as §1

[12] = tested on: TAF3
Outline: as §1

[13] = tested on: PHF13
Outline: as §1

[14] = tested on: CHD4 (PPCC)
Outline: as §1

[15] = tested on: ING3
Outline: as §1

[16] = tested on: ING1
Outline: as §1

[17] = tested on: PHRF1 (RP)
Outline: as §1

[18] = tested on: BAZ2B
Outline: as §1

[19] = tested on: CHD5 (PPCC)
Outline: as §1

[20] = tested on: CHD5 (PCC)
Outline: as §1

[21] = tested on: AIRE (PP)
Outline: as §1

[22] = tested on: PHF23
Outline: as §1

[23] = tested on: MLL5
Outline: as §1

[24] = tested on: KDM5B (1)
Outline: as §1

[25] = tested on: KDM4C (TTP)
Outline: as §1

[26] = tested on: PHF8
Outline: as §1

[27] = tested on: SP140L
Outline: as §1

[28] = tested on: DIDO1
Outline: as §1

[29] = tested on: KDM5B (3)
Outline: as §1

[30] = tested on: BPTF (PB)
Outline: as §1

[31] = tested on: KDM5A (3)
Outline: as §1

[32] = sheet "Array Heatmap", GST-tagged reader, histone peptide array, total n = 4
[33] = histone peptide array, GST-tagged reader, arrays performed twice, n of 4
[34] = histone peptide array, GST-tagged reader, CW = CW-type Zn-finger, arrays performed twice, n of 4
[35] = histone peptide array, GST-tagged reader, PB = PHD + Bromodomain, arrays performed twice, n of 4
[36] = histone peptide array, GST-tagged reader, PPC2W2 = Dual PHD + C2W2-type Zn-finger, arrays performed twice, n of 4
[37] = histone peptide array, GST-tagged reader, PPCC = Dual PHD + Dual Chromodomain, arrays performed twice, n of 4
[38] = histone peptide array, GST-tagged reader, PCC = PHD + Dual Chromodomain, arrays performed twice, n of 4
[39] = histone peptide array, GST-tagged reader, TTP = Tandem Tudor domain + PHD, arrays performed twice, n of 4

H3 (1-25): H3 1-25
Array Heatmap signal, RAG2 [1, 32]: 0.2539 | Array Heatmap signal, MORC3 (CW) [2, 32]: 0.6357 | Array Heatmap signal, PHF21A [3, 32]: 0.4429 | Array Heatmap signal, ING4 [4, 32]: 0.4369 | Array Heatmap signal, TRIM66 (PB) [5, 32]: 0.9221 | Array Heatmap signal, PHF2 [6, 32]: 0.5334 | Array Heatmap signal, KDM5A (1) [7, 32]: 0.4713 | Array Heatmap signal, DPF2 (PPC2W2) [8, 32]: 0.7357 | Array Heatmap signal, KDM7A [9, 32]: 0.3768 | Array Heatmap signal, ING5 [10, 32]: 0.3412 | Array Heatmap signal, ING2 [11, 32]: 0.6234 | Array Heatmap signal, TAF3 [12, 32]: 0.2692 | Array Heatmap signal, PHF13 [13, 32]: 0.6012 | Array Heatmap signal, CHD4 (PPCC) [14, 32]: 0.5563 | Array Heatmap signal, ING3 [15, 32]: 0.4651 | Array Heatmap signal, ING1 [16, 32]: 0.5226 | Array Heatmap signal, PHRF1 (RP) [17, 32]: 0.8507 | Array Heatmap signal, BAZ2B [18, 32]: 0.4554 | Array Heatmap signal, CHD5 (PPCC) [19, 32]: 0.5322 | Array Heatmap signal, CHD5 (PCC) [20, 32]: 0.8391 | Array Heatmap signal, AIRE (PP) [21, 32]: 0.5222 | Array Heatmap signal, PHF23 [22, 32]: 0.5406 | Array Heatmap signal, MLL5 [23, 32]: 0.57 | Array Heatmap signal, KDM5B (1) [24, 32]: 0.6949 | Array Heatmap signal, KDM4C (TTP) [25, 32]: 0.4415 | Array Heatmap signal, PHF8 [26, 32]: 0.366 | Array Heatmap signal, SP140L [27, 32]: 0.342 | Array Heatmap signal, DIDO1 [28, 32]: 0.658 | Array Heatmap signal, KDM5B (3) [29, 32]: 0.5183 | Array Heatmap signal, BPTF (PB) [30, 32]: 0.3452 | Array Heatmap signal, KDM5A (3) [31, 32]: 0.6477

H3 (1-32): H3 1-32
Array Heatmap signal, RAG2 ([1]; sheet "Array Heatmap", GST-tagged RAG2, arrays performed twice, total replicate number n = 4): 0.2569 | Array Heatmap signal, MORC3 (CW) ([2]; sheet "Array Heatmap", GST-tagged MORC3 (CW), arrays performed twice, total replicate number n = 4): 0.4518 | Array Heatmap signal, PHF21A ([3]; sheet "Array Heatmap", GST-tagged PHF21A, arrays performed twice, total replicate number n = 4): 0.4399 | Array Heatmap signal, ING4 ([4]; sheet "Array Heatmap", GST-tagged ING4, arrays performed twice, total replicate number n = 4): 0.4381 | Array Heatmap signal, TRIM66 (PB) ([5]; sheet "Array Heatmap", GST-tagged TRIM66 (PB), arrays performed twice, total replicate number n = 4): 0.7057 | Array Heatmap signal, PHF2 ([6]; sheet "Array Heatmap", GST-tagged PHF2, arrays performed twice, total replicate number n = 4): 0.514 | Array Heatmap signal, KDM5A (1) ([7]; sheet "Array Heatmap", GST-tagged KDM5A (1), arrays performed twice, total replicate number n = 4): 0.4672 | Array Heatmap signal, DPF2 (PPC2W2) ([8]; sheet "Array Heatmap", GST-tagged DPF2 (PPC2W2), arrays performed twice, total replicate number n = 4): 0.6414 | Array Heatmap signal, KDM7A ([9]; sheet "Array Heatmap", GST-tagged KDM7A, arrays performed twice, total replicate number n = 4): 0.308 | Array Heatmap signal, ING5 ([10]; sheet "Array Heatmap", GST-tagged ING5, arrays performed twice, total replicate number n = 4): 0.344 | Array Heatmap signal, ING2 ([11]; sheet "Array Heatmap", GST-tagged ING2, arrays performed twice, total replicate number n = 4): 0.5998 | Array Heatmap signal, TAF3 ([12]; sheet "Array Heatmap", GST-tagged TAF3, arrays performed twice, total replicate number n = 4): 0.2681 | Array Heatmap signal, PHF13 ([13]; sheet "Array Heatmap", GST-tagged PHF13, arrays performed twice, total replicate number n = 4): 0.5781 | Array Heatmap signal, CHD4 (PPCC) ([14]; sheet "Array Heatmap", GST-tagged CHD4 (PPCC), arrays performed twice, total replicate number n = 4): 0.5584 | Array Heatmap signal, ING3 ([15]; sheet "Array Heatmap", GST-tagged ING3, arrays performed twice, total replicate number n = 4): 0.4534 | Array Heatmap signal, ING1 ([16]; sheet "Array Heatmap", GST-tagged ING1, arrays performed twice, total replicate number n = 4): 0.5053 | Array Heatmap signal, PHRF1 (RP) ([17]; sheet "Array Heatmap", GST-tagged PHRF1 (RP), arrays performed twice, total replicate number n = 4): 0.6359 | Array Heatmap signal, BAZ2B ([18]; sheet "Array Heatmap", GST-tagged BAZ2B, arrays performed twice, total replicate number n = 4): 0.4644 | Array Heatmap signal, CHD5 (PPCC) ([19]; sheet "Array Heatmap", GST-tagged CHD5 (PPCC), arrays performed twice, total replicate number n = 4): 0.5395 | Array Heatmap signal, CHD5 (PCC) ([20]; sheet "Array Heatmap", GST-tagged CHD5 (PCC), arrays performed twice, total replicate number n = 4): 0.752 | Array Heatmap signal, AIRE (PP) ([21]; sheet "Array Heatmap", GST-tagged AIRE (PP), arrays performed twice, total replicate number n = 4): 0.4331 | Array Heatmap signal, PHF23 ([22]; sheet "Array Heatmap", GST-tagged PHF23, arrays performed twice, total replicate number n = 4): 0.5255 | Array Heatmap signal, MLL5 ([23]; sheet "Array Heatmap", GST-tagged MLL5, arrays performed twice, total replicate number n = 4): 0.5257 | Array Heatmap signal, KDM5B (1) ([24]; sheet "Array Heatmap", GST-tagged KDM5B (1), arrays performed twice, total replicate number n = 4): 0.6889 | Array Heatmap signal, KDM4C (TTP) ([25]; sheet "Array Heatmap", GST-tagged KDM4C (TTP), arrays performed twice, total replicate number n = 4): 0.4465 | Array Heatmap signal, PHF8 ([26]; sheet "Array Heatmap", GST-tagged PHF8, arrays performed twice, total replicate number n = 4): 0.3413 | Array Heatmap signal, SP140L ([27]; sheet "Array Heatmap", GST-tagged SP140L, arrays performed twice, total replicate number n = 4): 0.3492 | Array Heatmap signal, DIDO1 ([28]; sheet "Array Heatmap", GST-tagged DIDO1, arrays performed twice, total replicate number n = 4): 0.6427 | Array Heatmap signal, KDM5B (3) ([29]; sheet "Array Heatmap", GST-tagged KDM5B (3), arrays performed twice, total replicate number n = 4): 0.4939 | Array Heatmap signal, BPTF (PB) ([30]; sheet "Array Heatmap", GST-tagged BPTF (PB), arrays performed twice, total replicate number n = 4): 0.3386 | Array Heatmap signal, KDM5A (3) ([31]; sheet "Array Heatmap", GST-tagged KDM5A (3), arrays performed twice, total replicate number n = 4): 0.5232

H3 (15-34)K27ac: H3 15-34
Array Heatmap signal, RAG2 [1, 33]: 0.2665 | Array Heatmap signal, MORC3 (CW) [2, 34]: 0.3756 | Array Heatmap signal, PHF21A [3, 33]: 0.4777 | Array Heatmap signal, ING4 [4, 33]: 0.4806 | Array Heatmap signal, TRIM66 (PB) [5, 35]: 0.5567 | Array Heatmap signal, PHF2 [6, 33]: 0.4814 | Array Heatmap signal, KDM5A (1) [7, 33]: 0.5009 | Array Heatmap signal, DPF2 (PPC2W2) [8, 36]: 0.642 | Array Heatmap signal, KDM7A [9, 33]: 0.3922 | Array Heatmap signal, ING5 [10, 33]: 0.3933 | Array Heatmap signal, ING2 [11, 33]: 0.5993 | Array Heatmap signal, TAF3 [12, 33]: 0.268 | Array Heatmap signal, PHF13 [13, 33]: 0.6352 | Array Heatmap signal, CHD4 (PPCC) [14, 37]: 0.5674 | Array Heatmap signal, ING3 [15, 33]: 0.5008 | Array Heatmap signal, ING1 [16, 33]: 0.5528 | Array Heatmap signal, PHRF1 (RP) [17, 33]: 0.4538 | Array Heatmap signal, BAZ2B [18, 33]: 0.4845 | Array Heatmap signal, CHD5 (PPCC) [19, 37]: 0.5983 | Array Heatmap signal, CHD5 (PCC) [20, 38]: 0.7622 | Array Heatmap signal, AIRE (PP) [21, 33]: 0.5038 | Array Heatmap signal, PHF23 [22, 33]: 0.5579 | Array Heatmap signal, MLL5 [23, 33]: 0.5399 | Array Heatmap signal, KDM5B (1) [24, 33]: 0.6588 | Array Heatmap signal, KDM4C (TTP) [25, 39]: 0.5365 | Array Heatmap signal, PHF8 [26, 33]: 0.3727 | Array Heatmap signal, SP140L [27, 33]: 0.3795 | Array Heatmap signal, DIDO1 [28, 33]: 0.6571 | Array Heatmap signal, KDM5B (3) [29, 33]: 0.4788 | Array Heatmap signal, BPTF (PB) [30, 35]: 0.3592 | Array Heatmap signal, KDM5A (3) [31, 33]: 0.4223

H3 (15-34)K27but: H3 15-34
Array Heatmap signal, RAG2 [1, 33]: 0.2497 | Array Heatmap signal, MORC3 (CW) [2, 34]: 0.372 | Array Heatmap signal, PHF21A [3, 33]: 0.4988 | Array Heatmap signal, ING4 [4, 33]: 0.489 | Array Heatmap signal, TRIM66 (PB) [5, 35]: 0.6313 | Array Heatmap signal, PHF2 [6, 33]: 0.467 | Array Heatmap signal, KDM5A (1) [7, 33]: 0.5054 | Array Heatmap signal, DPF2 (PPC2W2) [8, 36]: 0.6771 | Array Heatmap signal, KDM7A [9, 33]: 0.4288 | Array Heatmap signal, ING5 [10, 33]: 0.383 | Array Heatmap signal, ING2 [11, 33]: 0.591 | Array Heatmap signal, TAF3 [12, 33]: 0.309 | Array Heatmap signal, PHF13 [13, 33]: 0.644 | Array Heatmap signal, CHD4 (PPCC) [14, 37]: 0.6128 | Array Heatmap signal, ING3 [15, 33]: 0.4849 | Array Heatmap signal, ING1 [16, 33]: 0.5341 | Array Heatmap signal, PHRF1 (RP) [17, 33]: 0.4393 | Array Heatmap signal, BAZ2B [18, 33]: 0.4927 | Array Heatmap signal, CHD5 (PPCC) [19, 37]: 0.5931 | Array Heatmap signal, CHD5 (PCC) [20, 38]: 0.8263 | Array Heatmap signal, AIRE (PP) [21, 33]: 0.5516 | Array Heatmap signal, PHF23 [22, 33]: 0.5352 | Array Heatmap signal, MLL5 [23, 33]: 0.5529 | Array Heatmap signal, KDM5B (1) [24, 33]: 0.6712 | Array Heatmap signal, KDM4C (TTP) [25, 39]: 0.5459 | Array Heatmap signal, PHF8 [26, 33]: 0.4166 | Array Heatmap signal, SP140L [27, 33]: 0.3805 | Array Heatmap signal, DIDO1 [28, 33]: 0.6557 | Array Heatmap signal, KDM5B (3) [29, 33]: 0.5015 | Array Heatmap signal, BPTF (PB) [30, 35]: 0.3698 | Array Heatmap signal, KDM5A (3) [31, 33]: 0.4198

Source: paper PMC6979384, “Characterization of the plant homeodomain (PHD) reader family for their histone tail interactions” (Epigenetics & Chromatin, 2020)
